Test system: MCF-7 cells
Test: SiNW-ECIS impedance and capacitance response of MCF-7 cells to antitubulin drugs
Format: cell-based, human
Conditions: PTX 0.1 nano-moles per liter; for normalized capacitance change (ΔC %) vs control sample / normalized impedance change (ΔZ %) vs control sample: MCF-7, 2 hours (T1) after drug incubation; for normalized capacitance change (ΔC %) vs control sample / normalized impedance change (ΔZ %) vs control sample / change in norm of impedance of treated cells between T1 and T2 / norm of capacitive changes, control sample more than drug treated values: ABZ 2.1 nano-moles per liter; for normalized impedance change (ΔZ %) vs control sample: mean; for norm of capacitive changes, control sample more than drug treated values: MCF-7, 6 hours (T2) after drug incubation
Method: In this example, the diagnostic response of cells membrane to extremely low dose of antitubulin drugs is investigated. Initially, MCF-7 cell lines, isolated from grade I human breast tumors, were obtained from the National Cell Bank of Iran (Pasteur Institute). Then, cells were maintained in a CO2 incubator (37° C., 5% CO2) in RPMI-1640 medium supplemented with 5% fetal bovine serum, and 1% penicillin/streptomycin. The fresh medium was replaced every other day. Then, the cultured cells were dropped on the surface of the SiNW-ECIS, designed and fabricated pursuant to teachings of the present application. Prior to each experiment, cells were trypsinized to be detached from the substrate and resuspended on the SiNW surface. To minimize the effect of trypsinization, the procedure may last for less than 4 minutes at room temperature of about 20° C. The samples were held in an incubator for about 4 hours to achieve cells attachment on the SiNWs. Thereafter, the ABZ drug with low concentrations of about 2.1 nano-moles per liter and the PTX drug with low concentrations of about 0.1 nano-moles per liter were added to individual samples. Finally, the signal recording and biological assays were investigated about 2 hours and 6 hours after the drug treatment (6 hours and 10 hours after the beginning of culturing process).
Referring to FIGS. 12A-12G, comparative normalized diagrams of impedance (designated by ΔZ % and represented by solid black lines) and capacitance changes (designated by ΔC % and represented by dashed grey lines) are illustrated for MCF-7 cells seeded on SiNW electrodes after treating by 2.1 nano-moles per liter of ABZ and 0.1 nano-moles per liter of PTX. The time interval between the drug incubation and the signal extraction are 2 hours (designated by T1) and 6 hours (designated by T2). In addition, the same diagrams are plotted for control sample prepared with no drug treatment stage.
According to the method described in the present example, the samples were maintained in an incubator so that the signal extraction was repeated 10 hours after cells dropping (6 hours after drug incubation for treated samples) to monitor the time evolution of drug induced MT polymerization/depolymerization on bioelectrical response of the membrane.

[1] = MCF-7, 2 hours (T1) vs 6 hours (T2) after drug incubation

SMILES | normalized capacitance change (ΔC %) vs control sample | normalized impedance change (ΔZ %) vs control sample | change in norm of impedance of treated cells between T1 and T2 [1] | norm of capacitive changes, control sample more than drug treated values | time dependent variation in capacitive behavior between T1 and T2 [1]
CCCSc1ccc2nc(NC(=O)OC)[nH]c2c1 [ABZ, Albendazole] | 70% | 25% | about 60% | about 90% | 
CC(=O)O[C@H]1C(=O)[C@@]2(C)[C@H]([C@H](OC(=O)c3ccccc3)[C@]3(O)C[C@H](OC(=O)[C@H](O)[C@@H](NC(=O)c4ccccc4)c4ccccc4)C(C)=C1C3(C)C)[C@]1(OC(C)=O)CO[C@@H]1C[C@@H]2O [PTX, Paclitaxel] | about 60% | about 50% | 15% | ~75% | about 85%
